Measured values as given in US5217969A, “Benzoxazine derivatives as inhibitors of leukotrienes” (Imperial Chemical Industries PLC, priority 1990, dated 1993).

What was measured:
5-LO [1] = target: T1, 5-LO (Homo sapiens, UniProt P09917); assay: test b) heparinised human blood challenged with A23187, LTB4 radioimmunoassay; assay type: cell-based
T1 construct: heparinised human blood, prior to challenge with the calcium ionophore A23187; endogenous in cells; host or cells: heparinised human blood (endogenous enzyme of the blood cells)
T1 sequence (P09917 1-674): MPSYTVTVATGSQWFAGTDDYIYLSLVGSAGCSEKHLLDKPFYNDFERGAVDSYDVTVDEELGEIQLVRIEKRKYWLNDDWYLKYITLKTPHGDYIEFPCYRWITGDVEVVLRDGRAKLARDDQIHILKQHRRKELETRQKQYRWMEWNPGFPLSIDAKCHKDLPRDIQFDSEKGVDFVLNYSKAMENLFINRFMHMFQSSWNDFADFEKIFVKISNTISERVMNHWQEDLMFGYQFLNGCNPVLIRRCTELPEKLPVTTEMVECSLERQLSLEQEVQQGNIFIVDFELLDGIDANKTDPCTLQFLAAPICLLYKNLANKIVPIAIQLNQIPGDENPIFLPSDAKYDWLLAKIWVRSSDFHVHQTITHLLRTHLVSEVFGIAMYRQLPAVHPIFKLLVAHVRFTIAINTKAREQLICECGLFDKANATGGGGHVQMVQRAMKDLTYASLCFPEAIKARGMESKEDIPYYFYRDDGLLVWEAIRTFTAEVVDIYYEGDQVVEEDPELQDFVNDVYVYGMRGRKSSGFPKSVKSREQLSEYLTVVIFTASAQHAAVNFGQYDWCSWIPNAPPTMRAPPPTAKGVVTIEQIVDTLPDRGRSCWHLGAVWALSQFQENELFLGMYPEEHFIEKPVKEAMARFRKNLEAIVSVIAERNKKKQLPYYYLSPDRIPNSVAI
Description: b) An in vitro assay system involving incubating a test compound with heparinised human blood, prior to challenge with the calcium ionophore A23187 and then indirectly measuring the inhibitory effects on 5-LO by assaying the amount of LTB4 using the specific radioimmunoassays described by Carey and Forder (F. Carey and R. A. Forder, Prostaglandins, Leukotrienes Med., 1986, 22, 57; Prostaglandins, 1984, 28, 666; Brit. J. Pharmacol. 1985, 84, 34P) which involve the use of a protein-LTB4 conjugate produced using the procedure of Young et alia (Prostaglandins, 1983, 26(4), 605-613). The effects of a test compound on the enzyme cyclooxygenase (which is involved in the alternative metabolic pathway for arachidonic acid and gives rise to prostaglandins, thromboxanes and related metabolites) may be measured at the same time using the specific radioimmunoassay for thromboxane B2 (T×B2) described by Carey and Forder (see above). This test provides an indication of the effects of a test compound against 5-LO and also cyclooxygenase in the presence of blood cells and proteins. It permits the selectivity of the inhibitory effect on 5-LO or cyclooxygenase to be assessed.

5-LO [2] = target: T2, 5-LO (Rattus norvegicus, UniProt P12527); assay: test g) liberation of LTB4 induced by zymosan within an air pouch of male rats; assay type: in vivo; conditions: oral
T2 construct: liberation of LTB4 induced by zymosan within an air pouch generated within the subcutaneous tissue of the back of male rats; endogenous in cells; host or cells: living male rats; endogenous enzyme of cells in the zymosan-inflamed subcutaneous air pouch
T2 sequence (P12527 1-673): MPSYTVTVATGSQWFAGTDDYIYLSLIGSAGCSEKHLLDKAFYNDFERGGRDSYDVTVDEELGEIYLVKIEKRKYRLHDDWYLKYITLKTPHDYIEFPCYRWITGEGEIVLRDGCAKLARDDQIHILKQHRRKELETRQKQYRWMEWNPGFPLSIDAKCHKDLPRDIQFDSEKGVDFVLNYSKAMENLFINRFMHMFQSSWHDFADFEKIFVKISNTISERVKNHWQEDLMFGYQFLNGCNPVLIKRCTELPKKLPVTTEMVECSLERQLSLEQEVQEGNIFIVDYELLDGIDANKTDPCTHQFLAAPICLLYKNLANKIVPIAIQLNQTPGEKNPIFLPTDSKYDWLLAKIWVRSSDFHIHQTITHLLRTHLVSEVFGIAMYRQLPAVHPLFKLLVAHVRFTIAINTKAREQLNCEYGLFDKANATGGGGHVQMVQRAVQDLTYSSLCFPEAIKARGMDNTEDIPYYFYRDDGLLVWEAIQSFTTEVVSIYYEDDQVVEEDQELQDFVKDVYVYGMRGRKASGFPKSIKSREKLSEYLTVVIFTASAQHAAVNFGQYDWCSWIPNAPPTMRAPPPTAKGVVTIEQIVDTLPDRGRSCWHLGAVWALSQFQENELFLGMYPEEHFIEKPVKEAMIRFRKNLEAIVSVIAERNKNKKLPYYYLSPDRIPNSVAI
Description: g) An in vivo system involving measuring the effects of a test compound administered orally against the liberation of LTB4 induced by zymosan within an air pouch generated within the subcutaneous tissue of the back of male rats. The rats are anaesthetised and air pouches are formed by the injection of sterile air (20 ml). A further injection of air (10 ml) is similarly given after 3 days. At 6 days after the initial air injection the test compound is administered (usually orally as the suspension produced when a solution of the test compound in dimethylsulphoxide is added to hydroxypropylmethylcellulose), followed by the intrapouch injection of zymosan (1 ml of a 1% suspension in physiological saline). After 3 hours the rats are killed, the air pouches are lavaged with physiological saline, and the specific radioimmunoassay described above is used to assay LTB4 in the washings. This test provides an indication of inhibitory effects against 5-LO in an inflammatory milieu.

IC50 (5-LO [1]) [nM] | ED50 (5-LO [2]) [mg/kg] | SMILES
50 | 1.5 | COC1(c2cc(F)cc(OCc3ccc4c(c3)OC(C)(C)C(=O)N4C)c2)CCOCC1 [Example 2, 4-[5-fluoro-3-(2,2,4-trimethyl-3-oxo-2,3-dihydro-4H-1,4-benzoxazin-7-ylmethoxy)phenyl]-4-methoxytetrahydropyran]
40 | 0.4 | COC1(c2cc(F)cc(OCc3ccc4c(c3)OCC(=O)N4C)c2)CCOCC1 [Example 1, 4-[5-fluoro-3-(4-methyl-3-oxo-2,3-dihydro-4H-1,4-benzoxazin-7-ylmethoxy)phenyl]-4-methoxytetrahydropyran]
50 | 0.15 | COC1(c2cc(F)cc(Sc3ccc4c(c3)OCC(=O)N4C)c2)CCOCC1 [Example 5, 4-[5-fluoro-3-(4-methyl-3-oxo-2,3-dihydro-4H-1,4-benzoxazin-7-ylthio)phenyl]-4-methoxytetrahydropyran]
300 | 1.5 | COC1(c2cc(F)cc(Sc3ccc4c(c3)OCC(=S)N4C)c2)CCOCC1 [Example 7, 4-[5-fluoro-3-(4-methyl-3-thioxo-2,3-dihydro-4H-1,4-benzoxazin-7-ylthio)phenyl]-4-methoxytetrahydropyran]
